Columns and labels:
hNAMPT protein = hNAMPT protein (Homo sapiens (Human), UniProt P43490); test: NAMPT enzyme assay (TR-FRET/HTRF, BodiPY ligand, anti 6His-Tb); assay type: binding; settings: for inhibition at 1 µM: NAMPT inhibition at compound concentration 1 μM, read-out: Percent Inhibition; for IC50: NAMPT inhibition, IC50 range class, read-out: IC50
Method in brief: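 Compound or DMSO was incubated for 1 h at room temperature, protected from light, with BodiPY ligand and hNAMPT labelled by terbium anti-6His antibody. The 520 nm to 486 nm emission ratio after 320 nm excitation gave inhibition versus vehicle, from which concentration-response curves yielded IC50.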

PC3 cells = test: PC3 growth inhibition (Cell-titer glo, 72 hours); assay type: cell-based; settings: Homo sapiens, PC-3; compound concentration 1.667 μM; PC3 cells, 72 hours, Cell-titer glo; read-out: Percent Inhibition (PC3 growth inhibition)
Method in brief: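 Compounds in AIM serum-free medium were applied for 72 h at 37 °C, 5% CO2 to PC3 cells plated overnight from RPMI1640 culture. Luminescence after 10 min CellTiter-Glo, normalised to DMSO, gave % viability at 1 μM or 1.667 μM, or GI50/LD50.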

hNAMPT protein, sequence (P43490 whole entry): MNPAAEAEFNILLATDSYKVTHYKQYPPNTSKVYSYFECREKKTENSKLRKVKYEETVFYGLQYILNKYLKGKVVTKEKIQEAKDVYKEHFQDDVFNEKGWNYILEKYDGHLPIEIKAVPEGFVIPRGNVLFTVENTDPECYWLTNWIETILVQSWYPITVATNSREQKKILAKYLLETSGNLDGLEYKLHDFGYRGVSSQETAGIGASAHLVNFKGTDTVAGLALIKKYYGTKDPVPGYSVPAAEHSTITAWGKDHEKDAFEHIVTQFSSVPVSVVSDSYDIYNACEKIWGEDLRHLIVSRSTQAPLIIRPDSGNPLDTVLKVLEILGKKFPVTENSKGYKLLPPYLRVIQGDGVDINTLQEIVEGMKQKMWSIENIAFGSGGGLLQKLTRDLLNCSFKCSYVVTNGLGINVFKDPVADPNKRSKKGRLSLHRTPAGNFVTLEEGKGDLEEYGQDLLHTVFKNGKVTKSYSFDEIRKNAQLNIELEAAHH

Row | Structure (SMILES) | inhibition at 1 µM (hNAMPT protein) [%] | IC50 (hNAMPT protein) [nM] | inhibition at 1.667 µM (PC3 cells) [%]
1 | CC(C)Oc1nc2ccc(C(=O)NCCCc3c[nH]cn3)cc2nc1-c1ccc(F)cc1 [Compound I-482, 3-(4-Fluorophenyl)-N-[3-(1H-imidazol-4-yl)propyl]-2-isopropoxyquinoxaline-6-carboxamide] | 72 | 100 to 500 | 2
2 | O=C(NCCCc1ncc[nH]1)c1ccc2nc(-c3ccc(Cl)s3)c(-c3ccc(F)cc3)nc2c1 [Compound I-483, 2-(5-chloro-2-thienyl)-3-(4-fluorophenyl)-N-[3-(1H-imidazol-2-yl)propyl]quinoxaline-6-carboxamide] | 77 | 100 to 500 | 2
3 | COc1cccc(-c2nc3cc(C(=O)NCCCc4ncc[nH]4)ccc3nc2-c2ccc(F)cc2)c1 [Compound I-484, 2-(4-fluorophenyl)-N-[3-(1H-imidazol-2-yl)propyl]-3-(3-methoxyphenyl)quinoxaline-6-carboxamide] | 99 | < 100 | 2
4 | C[C@@H]1CN(c2nc3ccc(C(=O)NCCCc4ccc(N)nc4)cc3nc2-c2ccc(F)cc2)C[C@H](C)O1 [Compound I-485, N-[3-(6-aminopyridin-3-yl)propyl]-2-[cis-2,6-dimethylmorpholin-4-yl]-3-(4-fluorophenyl)quinoxaline-6-carboxamide] | 96 | < 100 | 2
5 | Cc1ccc(-c2nc3cc(C(=O)NCCCc4ncc[nH]4)ccc3nc2-c2ccc(F)cc2)cn1 [Compound I-486, 2-(4-fluorophenyl)-N-[3-(1H-imidazol-2-yl)propyl]-3-(6-methylpyridin-3-yl)quinoxaline-6-carboxamide] | 78 | 100 to 500 | 2
6 | O=C(NCc1ccc2nccn2c1)c1ccc2nc(-c3ccc(Cl)cc3)c(-c3ccc(Cl)cc3)nc2c1 [Compound I-487, 2,3-bis(4-chlorophenyl)-N-(imidazo[1,2-a]pyridin-6-ylmethyl)quinoxaline-6-carboxamide] | 70 | 100 to 500 | 1
7 | COc1cc(-c2nc3cc(C(=O)NCCCc4ncc[nH]4)ccc3nc2-c2ccc(F)cc2)ccc1F [Compound I-488, 3-(4-fluoro-3-methoxyphenyl)-2-(4-fluorophenyl)-N-[3-(1H-imidazol-2-yl)propyl]quinoxaline-6-carboxamide] | 98 | < 100 | 2
8 | O=C(NCCCc1ncc[nH]1)c1ccc2nc(OCCc3ccccn3)c(-c3ccc(F)cc3)nc2c1 [Compound I-489, 3-(4-fluorophenyl)-N-[3-(1H-imidazol-2-yl)propyl]-2-[2-(pyridin-2-yl)ethoxy]quinoxaline-6-carboxamide] | > 99 | < 100 | 2
9 | O=C(NCCCc1ncc[nH]1)c1ccc2nc(OCC3CC3)c(-c3ccc(F)cc3)nc2c1 [Compound I-490, 2-(cyclopropylmethoxy)-3-(4-fluorophenyl)-N-[3-(1H-imidazol-2-yl)propyl]quinoxaline-6-carboxamide] | 95 | < 100 | 2
10 | CC(C)Oc1nc2cc(F)c(C(=O)NCCCc3ncc[nH]3)cc2nc1-c1ccc(F)cc1 [Compound I-491, N-(3-(1H-imidazol-2-yl)propyl)-7-fluoro-3-(4-fluorophenyl)-2-isopropoxyquinoxaline-6-carboxamide] | 83 | 100 to 500 | 4
11 | COc1ccc(F)c(-c2nc3cc(C(=O)NCCCc4ncc[nH]4)ccc3nc2OC(C)C)c1 [Compound I-492, 3-(2-fluoro-5-methoxyphenyl)-N-[3-(1H-imidazol-2-yl)propyl]-2-isopropoxyquinoxaline-6-carboxamide] | 94 | < 100 | 3
12 | Cc1ccc(Cl)cc1-c1nc2cc(C(=O)NCCCc3ncc[nH]3)ccc2nc1-c1ccc(F)cc1 [Compound I-493, 3-(5-chloro-2-methylphenyl)-2-(4-fluorophenyl)-N-[3-(1H-imidazol-2-yl)propyl]quinoxaline-6-carboxamide] | 98 | < 100 | 1
13 | Cc1ncsc1-c1nc2cc(C(=O)NCCCc3ncc[nH]3)ccc2nc1-c1ccc(F)cc1 [Compound I-494, 2-(4-fluorophenyl)-N-[3-(1H-imidazol-2-yl)propyl]-3-(4-methyl-1,3-thiazol-5-yl)quinoxaline-6-carboxamide] | > 99 | < 100 | 3
14 | N#CCCOc1nc2ccc(C(=O)NCCCc3ncc[nH]3)cc2nc1-c1ccc(F)cc1 [Compound I-496, 2-(2-cyanoethoxy)-3-(4-fluorophenyl)-N-[3-(1H-imidazol-2-yl)propyl]quinoxaline-6-carboxamide] | 70 | 100 to 500 | > 99
15 | Cc1ccc(-c2nc3cc(C(=O)NCCCc4ncc[nH]4)ccc3nc2-c2ccc(F)cc2)cc1 [Compound I-497, 2-(4-fluorophenyl)-N-[3-(1H-imidazol-2-yl)propyl]-3-(4-methylphenyl)quinoxaline-6-carboxamide] | 80 | 100 to 500 | 2
16 | O=C(NCCCc1ncc[nH]1)c1ccc2nc(OCc3cccc(Cl)c3)c(-c3ccc(F)cc3)nc2c1 [Compound I-498, 2-[(3-chlorobenzyl)oxy]-3-(4-fluorophenyl)-N-[3-(1H-imidazol-2-yl)propyl]quinoxaline-6-carboxamide] | 84 | < 100 | 3
17 | O=C(NCCCc1ncc[nH]1)c1ccc2nc(-c3ccc(F)cc3)c(-c3ccc(Cl)s3)nc2c1 [Compound I-499, 3-(5-chloro-2-thienyl)-2-(4-fluorophenyl)-N-[3-(1H-imidazol-2-yl)propyl]quinoxaline-6-carboxamide] | 98 | < 100 | 2
18 | O=C(NCCCc1ncc[nH]1)c1ccc2nc(OCC3CCCC3)c(-c3ccc(F)cc3)nc2c1 [Compound I-500, 2-(cyclopentylmethoxy)-3-(4-fluorophenyl)-N-[3-(1H-imidazol-2-yl)propyl]quinoxaline-6-carboxamide] | 93 | < 100 | 3
19 | N#Cc1ccc(F)c(-c2nc3cc(C(=O)NCCCc4ncc[nH]4)ccc3nc2-c2ccc(F)cc2)c1 [Compound I-501, 3-(5-cyano-2-fluorophenyl)-2-(4-fluorophenyl)-N-[3-(1H-imidazol-2-yl)propyl]quinoxaline-6-carboxamide] | 99 | < 100 | 2
20 | O=C(NCCCc1ncc[nH]1)c1ccc2nc(-c3ccc(F)cc3)c(-c3ccc(F)c(Cl)c3)nc2c1 [Compound I-502, N-(3-(1H-imidazol-2-yl)propyl)-3-(3-chloro-4-fluorophenyl)-2-(4-fluorophenyl)quinoxaline-6-carboxamide] | 97 | < 100 | 2
21 | Cc1cnn(-c2nc3ccc(C(=O)NCCCc4ncc[nH]4)cc3nc2-c2ccc(F)cc2)c1 [Compound I-503, 3-(4-fluorophenyl)-N-[3-(1H-imidazol-2-yl)propyl]-2-(4-methyl-1H-pyrazol-1-yl)quinoxaline-6-carboxamide] | 84 | 100 to 500 | 3
